Experimental data published in BindingDB's records for doi:10.1016/s0960-894x(03)00407-4 (Guilford Pharmaceuticals, 2003).

Assay: Concentration required for the neuroprotective effect determined by inhibition of GCP II

Row | EC50 [nM] | SMILES
1 | 9.5 | O=C(O)CCC(CP(=O)(O)Cc1c(F)c(F)c(F)c(F)c1F)C(=O)O (racemic)
2 | 1100 | O=C(O)CCC(CCCC(=O)NO)C(=O)O (stereo not drawn) [2-(3-Hydroxycarbamoyl-propyl)-pentanedioic acid]
3 | 220 | O=C(O)CCC(CC(=O)NO)C(=O)O (stereo not drawn) [2-[(hydroxycarbamoyl)methyl]pentanedioic acid]
